Test results as given in patent US20250222038A1, “COLLAGEN MATRIX OR MEMBRANE WITH ANTIMICROBIAL PROPERTIES” (BIOCELLIX SPA, priority 2017, published 2025).

Legend:
[1] = system: Gram-negative bacteria (genus Proteus); assay: Antibiotic sensitivity trial (inhibition halos on agar Müller-Hinton plate), Gram-negative isolate; format: cell-based; parameters: key to Plate 1 Sensitivity Level: Sensitive(S); Intermediate or Moderately sensitive (I); Resistant (R); conditions: Plate 1 = FIG. 2 left (Gram-negative bacteria); for Plate 1 (Gram-) (mm) inhibition halo: 18-24 hours at 37° C., average for three experiments; for Plate 1 Sensitivity Level: classified according to halo size
Method: (§1) In order to assert the antimicrobial capability of the collagen matrix or membrane, lab testing was carried out. Patient biopsies were collected from different types of infected wounds (neuropathic diabetic foot and biofilms). These samples were homogenized and set to culture for 24 hours to observe if there was bacterial growth or not. When bacterial growth is observed, colonies of these cultures were isolated, and with them, a test for microbial sensitivity to the action of nanometals was carried out. […] In order for this trial to be performed, antibiotics commonly used for eliminating these bacteria and at set concentrations were used as controls. […] In order to analyze the effectiveness of copper nanometals and its effectiveness as antimicrobial agents, three concentrations, 1, 5 and 10 mg/ml, were used. […] The trial was carried out as follows: On the surface of an agar Müller-Hinton plate, 100 μl of a bacterial solution (OD600: 0.4) were inoculated and seeded evenly for bacterial colonies to grow. Then, filter paper discs soaked with known concentrations of the different antibiotics are placed. The antibiotic will spread from the agar filter paper radially. The plate was incubated for 18-24 hours at 37° C., and then the growth inhibition halos are measured by interpreting them according to the available data in databases. The results are expressed as: Sensitive(S), Intermediate or Moderately sensitive (I) and Resistant (R). […] To determine the inhibition halo, the diameter surrounding the sense disc on which bacterial growth was not observed was measured on the plate seeded with bacteria in the presence of different antibiotics. In this case, the inhibition halo is expressed in mm. According to the halo size, the bacteria are classified as sensitive to the antibiotic action, resistant to the antibiotic action or of intermediate resistance to the antibiotic action (data that is published in databases). […] Additionally, the purpose of this trial is to rule out that the matrix alone presents some level of antimicrobial action, therefore, a copper-free matrix was used as control. […] Gram-negative bacteria belong to genus Proteus, and Gram-positive bacteria belong to genus Staphylococcus.

[2] = system: Gram-positive bacteria (genus Staphylococcus); assay: Antibiotic sensitivity trial (inhibition halos on agar Müller-Hinton plate), Gram-positive isolate; format: cell-based; parameters: key to Plate 2 Sensitivity Level: Sensitive(S); Intermediate or Moderately sensitive (I); Resistant (R); conditions: Plate 2 = FIG. 2 right (Gram-positive bacteria); for Plate 2 (Gram+) (mm) inhibition halo: 18-24 hours at 37° C., average for three experiments; for Plate 2 Sensitivity Level: classified according to halo size
Method: as §1

Row | Structure (SMILES) | Plate 1 (Gram-) (mm) inhibition halo [1] | Plate 2 (Gram+) (mm) inhibition halo [2] | Plate 1 Sensitivity Level [1] | Plate 2 Sensitivity Level [2]
1 | O=C(O)c1cn(C2CC2)c2cc(N3CCNCC3)c(F)cc2c1=O [CIP, Ciprofloxacin] | 28 mm | 19 mm |  | 
2 | CC1(C)S[C@@H]2[C@H](NC(=O)[C@H](N)c3ccccc3)C(=O)N2[C@H]1C(=O)O [AM, Ampicillin] | 0 mm | 12 mm | Resistant | Intermediate
3 | CC[C@H]1OC(=O)[C@H](C)[C@@H](O[C@H]2C[C@@](C)(OC)[C@@H](O)[C@H](C)O2)[C@H](C)[C@@H](O[C@@H]2O[C@H](C)C[C@H](N(C)C)[C@H]2O)[C@](C)(OC)C[C@@H](C)C(=O)[C@H](C)[C@@H](O)[C@]1(C)O [CLR, Clarithromycin] | 15 mm | 18 mm | Intermediate | Sensitive
